Legend:
[1] = MTT assay, PhTERT-SEAP (H1299); type: cell-based, human; settings: human, H1299 cells carrying the PhTERT-SEAP reporter, PhTERT-SEAP (H1299); for viability at 1 μM: Conc. 1 μM, read-out: Relative MTT viability (%); for viability at 10 μM: Conc. 10 μM; for viability at 10 μM / viability at 100 μM: read-out: Relative MTT viability (%) (converted); for viability at 100 μM: Conc. 100 μM
Experimental: Further, cells were subjected to MTT assay to compare the relative toxicity or effect of each compound on cell proliferation and activity.
The above-described cells are cultured in a 96-well plate, to which was added with 25 μl MTT solution, and cultured in a 37° C. carbon dioxide incubator for 4 hours. Then, 100 μl Lysis buffer is added and incubated in a 37° C. carbon dioxide incubator overnight. An ELISA reader (Bio-Rad Model 450) is used to read optical density (O.D.) at 550 nm.

[2] = tested on: hTERT; experiment: Secreted alkaline phosphatase (SEAP) assay, PhTERT-SEAP (H1299); type: cell-based; settings: Homo sapiens, 24 hours; for activity at 1 µM: NCI-H1299, Conc. 1 μM, read-out: Relative SEAP activity (%); for activity at 10 µM: NCI-H1299, Conc. 10 μM; for activity at 10 µM / activity at 100 µM: read-out: Relative SEAP activity (%) (converted); for activity at 100 µM: NCI-H1299, Conc. 100 μM
Experimental: H1299 were grown in RPMI 1640 media supplemented with 10% fetal bovine serum, 100 units/mL penicillin and […] streptomycin in a humidified atmosphere with 5% CO2 at 37° C. Culture media were changed every three days. To establish stable cell lines that the expression of hTERT could be monitored by a reporter system, a about 3.3 kbp DNA fragment ranging from −3338 to +1 bp of the hTERT gene (hTERT promoter, PhTERT) was subcloned upstream to a secreted alkaline phosphatase gene (SEAP) and transfected into H1299 by electroporation. The stable clones were selected using G418. The stable clones derived from H1299 were cultured using conditions that are similar to their parental cells.
Secreted alkaline phosphatase was used as the reporter system to monitor the transcriptional activity of hTERT. Here, about 10^4 cells each were grown in 96-well plates and incubated at 37° C. for 24 hours and changed with fresh media. Varying amounts of drugs were added and cells were incubated for another 24 hours. Culture media were collected and heated at 65° C. for 10 min to inactivate heat-labile phosphatases. An equal amount of SEAP buffer (2 M diethanolamine, 1 mM MgCl2, and 20 mM L-homoarginine) was added to the media and p-nitrophenyl phosphate was added to a final concentration of 12 mM. Absorptions at 405 nm were taken, and the rate of absorption increase is determined (the increasing rate of absorbance at 405 nm was used to represent the activity of SEAP).

Structure (SMILES): O=C(CCl)Nc1ccc2c(c1NC(=O)c1ccno1)C(=O)c1ccccc1C2=O [CC-29, 1-[(5-isoxazolecarbonyl)amino]-2-(chloroacetamido)-anthraquinone]
- viability at 1 μM [1]: 105 ± 7.19%
- viability at 10 μM [1]: 3.47%
- viability at 100 μM [1]: 0.11%
- activity at 1 µM [2]: 92.5 ± 0.99%
- activity at 10 µM [2]: 4.91%
- activity at 100 µM [2]: 1.35%
- melting point: 212 to 213 °C

Structure (SMILES): Cc1cc(C(=O)Nc2c(NC(=O)CCl)ccc3c2C(=O)c2ccccc2C3=O)c(C)o1 [CC-30, 1-[(2,5-dimethyl-3-furoyl)amino]-2-(chloroacetamido)-anthraquinone]
- viability at 1 μM [1]: 96 ± 2.27%
- viability at 10 μM [1]: 2.93%
- activity at 1 µM [2]: 81.2 ± 1.85%
- activity at 10 µM [2]: 2.37%
- activity at 100 µM [2]: 0.83%
- melting point: 207 to 208 °C

Structure (SMILES): O=C(CCl)Nc1ccc2c(c1NC(=O)COc1ccccc1)C(=O)c1ccccc1C2=O [CC-31, 1-[2-(phenoxy)acetylamino]-2-(chloroacetamido)-anthraquinone]
- viability at 1 μM [1]: 101 ± 4.91%
- viability at 10 μM [1]: 66.5%
- viability at 100 μM [1]: 4.86%
- activity at 1 µM [2]: 83 ± 1.98%
- activity at 10 µM [2]: 72.9%
- activity at 100 µM [2]: 4.7%
- melting point: 217 to 218 °C

Structure (SMILES): O=C(CCl)Nc1ccc2c(c1NC(=O)CSc1ccccc1)C(=O)c1ccccc1C2=O [CC-32, 1-[2-(phenylsulfanyl)acetylamino]-2-(chloroacetamido)-anthraquinone]
- viability at 1 μM [1]: 88.5 ± 2.25%
- viability at 10 μM [1]: 5.73%
- activity at 1 µM [2]: 80 ± 4.39%
- activity at 10 µM [2]: 3.89%
- activity at 100 µM [2]: -0.05%
- melting point: 161 to 162 °C

Structure (SMILES): O=C(CN1CCN(c2ccccc2F)CC1)Nc1ccc2c(c1NC(=O)c1ccccc1)C(=O)c1ccccc1C2=O [CC-34, 1-(benzamido)-2-[2-[4-(2-fluorophenyl)piperazino]acetylamino]-anthraquinone]
- viability at 1 μM [1]: 98.6 ± 2.29%
- viability at 10 μM [1]: 92.3 ± 2.41%
- viability at 100 μM [1]: 27.8 ± 4.82%
- activity at 1 µM [2]: 98.7 ± 2.55%
- activity at 10 µM [2]: 79.6 ± 1.35%
- activity at 100 µM [2]: 15.6 ± 1.54%
- melting point: 228 to 229 °C

Structure (SMILES): Cc1ccc(C(=O)Nc2c(NC(=O)CN(C)C)ccc3c2C(=O)c2ccccc2C3=O)cc1 [CC-35, 1-(4-methylbenzamido)-2-[2-(dimethylamino)acetylamino]-anthraquinone]
- viability at 1 μM [1]: 107 ± 2.85%
- viability at 10 μM [1]: 88.4%
- activity at 1 µM [2]: 99.5 ± 3.37%
- activity at 10 µM [2]: 78.5%
- activity at 100 µM [2]: 9.61%
- melting point: 190 to 191 °C

Structure (SMILES): Cc1ccc(C(=O)Nc2c(NC(=O)CN(C)CC3OCCO3)ccc3c2C(=O)c2ccccc2C3=O)cc1 [CC-36, 1-(4-methylbenzamido)-2-[2-[(1,3-dioxolan-2-ylmethyl)(methyl)amino]acetylamino]-anthraquinone]
- viability at 1 μM [1]: 104 ± 2.12%
- viability at 10 μM [1]: 88.6%
- viability at 100 μM [1]: 3.78%
- activity at 1 µM [2]: 101 ± 3.01%
- activity at 10 µM [2]: 76.5%
- activity at 100 µM [2]: 10.2%
- melting point: 156 to 157 °C

Structure (SMILES): Cc1ccc(C(=O)Nc2c(NC(=O)CN(C)CCc3ccccn3)ccc3c2C(=O)c2ccccc2C3=O)cc1 [CC-37, 4-methyl-N-(2-(2-(methyl(2-(pyridin-2-yl)ethyl)amino)acetamido)-9,10-dioxo-9,10-dihydroanthracen-1-yl)benzamide]
- viability at 1 μM [1]: 94.9 ± 6.49%
- viability at 10 μM [1]: 46.2%
- viability at 100 μM [1]: 22%
- activity at 1 µM [2]: 90.6 ± 1.48%
- activity at 10 µM [2]: 11.9%
- activity at 100 µM [2]: 1.47%
- melting point: 166 to 167 °C

Structure (SMILES): Cc1ccc(C(=O)Nc2c(NC(=O)CN3CCCCC3)ccc3c2C(=O)c2ccccc2C3=O)cc1 [CC-39, N-(9,10-dioxo-2-(2-(piperidin-1-yl)acetamido)-9,10-dihydroanthracen-1-yl)-4-methylbenzamide]
- viability at 1 μM [1]: 86.3 ± 6.52%
- viability at 10 μM [1]: 70.2%
- viability at 100 μM [1]: 10.8%
- activity at 1 µM [2]: 85.4 ± 7.56%
- activity at 10 µM [2]: 70.1%
- activity at 100 µM [2]: 8.3%
- melting point: 213 to 214 °C
